Measured values published in ChEMBL document CHEMBL4359841, “Late-Stage Functionalization of Platensimycin Leading to Multiple Analogues with Improved Antibacterial Activity in Vitro and in Vivo” (2019).
Calls of active or inactive are those of the source. The rule behind the calls is not given here.

The molecules below were run on Staphylococcus aureus (assay: Inhibition of FabB/FabF in methicillin-resistant Staphylococcus aureus assessed as antibacterial activity at 5 ug/disk after 18 hrs by agar disk diffusion method).

SMILES	antibacterial activity (disk diffusion, qualitative)
C[C@]12C[C@@]34C=C(Sc5ccc(C(=O)O)cc5)C(=O)[C@@](C)(CCC(=O)Nc5c(O)ccc(C(=O)O)c5O)[C@@H]3[C@H](C[C@@H]1C4)O2	Active
CNC(=O)/C=C/c1cccc(SC2=C[C@]34C[C@H]5C[C@H](O[C@@]5(C)C3)[C@H]4[C@](C)(CCC(=O)Nc3c(O)ccc(C(=O)O)c3O)C2=O)c1	Active
C[C@]12C[C@@]34C=C(Sc5c(F)c(F)c(F)c(F)c5F)C(=O)[C@@](C)(CCC(=O)Nc5c(O)ccc(C(=O)O)c5O)[C@@H]3[C@H](C[C@@H]1C4)O2	Active
Cc1occc1SC1=C[C@]23C[C@H]4C[C@H](O[C@@]4(C)C2)[C@H]3[C@](C)(CCC(=O)Nc2c(O)ccc(C(=O)O)c2O)C1=O	Active
CCCCc1ccc(SC2=C[C@]34C[C@H]5C[C@H](O[C@@]5(C)C3)[C@H]4[C@](C)(CCC(=O)Nc3c(O)ccc(C(=O)O)c3O)C2=O)cc1	Active
C[C@]12C[C@@]34C=C(Sc5cc(Cl)cc(Cl)c5)C(=O)[C@@](C)(CCC(=O)Nc5c(O)ccc(C(=O)O)c5O)[C@@H]3[C@H](C[C@@H]1C4)O2	Active
C[C@]12C[C@@]34C=C(Sc5ccc(-c6ccccc6F)cc5)C(=O)[C@@](C)(CCC(=O)Nc5c(O)ccc(C(=O)O)c5O)[C@@H]3[C@H](C[C@@H]1C4)O2	Active
CCCCc1ccc(C#Cc2cccc(SC3=C[C@]45C[C@H]6C[C@H](O[C@@]6(C)C4)[C@H]5[C@](C)(CCC(=O)Nc4c(O)ccc(C(=O)O)c4O)C3=O)c2)cc1	Active
C[C@]12C[C@@]34C=C(Sc5cccc(-c6cccc(O)c6)c5)C(=O)[C@@](C)(CCC(=O)Nc5c(O)ccc(C(=O)O)c5O)[C@@H]3[C@H](C[C@@H]1C4)O2	Active
C[C@]12C[C@@]34C=C(Sc5ccc(C#CCN)cc5)C(=O)[C@@](C)(CCC(=O)Nc5c(O)ccc(C(=O)O)c5O)[C@@H]3[C@H](C[C@@H]1C4)O2	Active
C[C@]12C[C@@]34C=C(Sc5ccccc5C(=O)O)C(=O)[C@@](C)(CCC(=O)Nc5c(O)ccc(C(=O)O)c5O)[C@@H]3[C@H](C[C@@H]1C4)O2	Active
COc1ccccc1-c1ccc(SC2=C[C@]34C[C@H]5C[C@H](O[C@@]5(C)C3)[C@H]4[C@](C)(CCC(=O)Nc3c(O)ccc(C(=O)O)c3O)C2=O)cc1	Active
C[C@]12C[C@@]34C=C(Sc5ccc(-c6cccnc6)cc5)C(=O)[C@@](C)(CCC(=O)Nc5c(O)ccc(C(=O)O)c5O)[C@@H]3[C@H](C[C@@H]1C4)O2	Active
C[C@]12C[C@@]34C=C(Sc5ccc(C#Cc6ccc(C(=O)O)cc6)cc5)C(=O)[C@@](C)(CCC(=O)Nc5c(O)ccc(C(=O)O)c5O)[C@@H]3[C@H](C[C@@H]1C4)O2	Active
COc1ccccc1-c1cccc(SC2=C[C@]34C[C@H]5C[C@H](O[C@@]5(C)C3)[C@H]4[C@](C)(CCC(=O)Nc3c(O)ccc(C(=O)O)c3O)C2=O)c1	Active
CNC(=O)/C=C/c1ccc(SC2=C[C@]34C[C@H]5C[C@H](O[C@@]5(C)C3)[C@H]4[C@](C)(CCC(=O)Nc3c(O)ccc(C(=O)O)c3O)C2=O)cc1	Active
C[C@]12C[C@@]34C=C(Sc5cccc(C#Cc6cccc(N)c6)c5)C(=O)[C@@](C)(CCC(=O)Nc5c(O)ccc(C(=O)O)c5O)[C@@H]3[C@H](C[C@@H]1C4)O2	Active
C[C@]12C[C@@]34C=C(Sc5ccc(-c6ccco6)cc5)C(=O)[C@@](C)(CCC(=O)Nc5c(O)ccc(C(=O)O)c5O)[C@@H]3[C@H](C[C@@H]1C4)O2	Active
C[C@]12C[C@@]34C=C(Sc5cccc6ccccc56)C(=O)[C@@](C)(CCC(=O)Nc5c(O)ccc(C(=O)O)c5O)[C@@H]3[C@H](C[C@@H]1C4)O2	Active
C[C@]12C[C@@]34C=C(Sc5cccs5)C(=O)[C@@](C)(CCC(=O)Nc5c(O)ccc(C(=O)O)c5O)[C@@H]3[C@H](C[C@@H]1C4)O2	Active
C[C@]12C[C@@]34C=C(SCc5ccco5)C(=O)[C@@](C)(CCC(=O)Nc5c(O)ccc(C(=O)O)c5O)[C@@H]3[C@H](C[C@@H]1C4)O2	Active
C[C@]12C[C@@]34C=C(Sc5cccc(-c6ccccc6F)c5)C(=O)[C@@](C)(CCC(=O)Nc5c(O)ccc(C(=O)O)c5O)[C@@H]3[C@H](C[C@@H]1C4)O2	Active
CCCCC#Cc1ccc(SC2=C[C@]34C[C@H]5C[C@H](O[C@@]5(C)C3)[C@H]4[C@](C)(CCC(=O)Nc3c(O)ccc(C(=O)O)c3O)C2=O)cc1	Active
CCCCC#Cc1cccc(SC2=C[C@]34C[C@H]5C[C@H](O[C@@]5(C)C3)[C@H]4[C@](C)(CCC(=O)Nc3c(O)ccc(C(=O)O)c3O)C2=O)c1	Active

SMILES	antibacterial activity (disk diffusion, qualitative)
C[C@]12C[C@@]34C=C(Sc5cccc(C#CCN)c5)C(=O)[C@@](C)(CCC(=O)Nc5c(O)ccc(C(=O)O)c5O)[C@@H]3[C@H](C[C@@H]1C4)O2	Active
Cc1ccc(C#Cc2cccc(SC3=C[C@]45C[C@H]6C[C@H](O[C@@]6(C)C4)[C@H]5[C@](C)(CCC(=O)Nc4c(O)ccc(C(=O)O)c4O)C3=O)c2)cc1	Active
COC(=O)/C=C/c1ccc(SC2=C[C@]34C[C@H]5C[C@H](O[C@@]5(C)C3)[C@H]4[C@](C)(CCC(=O)Nc3c(O)ccc(C(=O)O)c3O)C2=O)cc1	Active
C[C@]12C[C@@]34C=C(Sc5cccc(-c6cccnc6)c5)C(=O)[C@@](C)(CCC(=O)Nc5c(O)ccc(C(=O)O)c5O)[C@@H]3[C@H](C[C@@H]1C4)O2	Active
C[C@]12C[C@@]34C=C(Sc5cccc(Br)c5)C(=O)[C@@](C)(CCC(=O)Nc5c(O)ccc(C(=O)O)c5O)[C@@H]3[C@H](C[C@@H]1C4)O2	Active
C[C@]12C[C@@]34C=C(Sc5ccc(-c6cccc(O)c6)cc5)C(=O)[C@@](C)(CCC(=O)Nc5c(O)ccc(C(=O)O)c5O)[C@@H]3[C@H](C[C@@H]1C4)O2	Active
C[C@]12C[C@@]34C=C(Sc5cccc(C#Cc6ccc(F)cc6)c5)C(=O)[C@@](C)(CCC(=O)Nc5c(O)ccc(C(=O)O)c5O)[C@@H]3[C@H](C[C@@H]1C4)O2	Active
C[C@]12C[C@@]34C=C(Sc5ccc(C#Cc6ccccc6)cc5)C(=O)[C@@](C)(CCC(=O)Nc5c(O)ccc(C(=O)O)c5O)[C@@H]3[C@H](C[C@@H]1C4)O2	Active
CN(C)C(=O)/C=C/c1cccc(SC2=C[C@]34C[C@H]5C[C@H](O[C@@]5(C)C3)[C@H]4[C@](C)(CCC(=O)Nc3c(O)ccc(C(=O)O)c3O)C2=O)c1	Active
C[C@]12C[C@@]34C=C(Sc5cccc(C#Cc6cccc(F)c6)c5)C(=O)[C@@](C)(CCC(=O)Nc5c(O)ccc(C(=O)O)c5O)[C@@H]3[C@H](C[C@@H]1C4)O2	Active
CCSC1=C[C@]23C[C@H]4C[C@H](O[C@@]4(C)C2)[C@H]3[C@](C)(CCC(=O)Nc2c(O)ccc(C(=O)O)c2O)C1=O	Active
C[C@]12C[C@@]34C=C(Sc5ccc(Cl)cc5)C(=O)[C@@](C)(CCC(=O)Nc5c(O)ccc(C(=O)O)c5O)[C@@H]3[C@H](C[C@@H]1C4)O2	Active
CC(C)(C)NC(=O)/C=C/c1ccc(SC2=C[C@]34C[C@H]5C[C@H](O[C@@]5(C)C3)[C@H]4[C@](C)(CCC(=O)Nc3c(O)ccc(C(=O)O)c3O)C2=O)cc1	Active
C[C@]12C[C@@]34C=C(Sc5cccc(C#CC6CC6)c5)C(=O)[C@@](C)(CCC(=O)Nc5c(O)ccc(C(=O)O)c5O)[C@@H]3[C@H](C[C@@H]1C4)O2	Active
C[C@]12C[C@@]34C=C(Sc5ccc(C#CC6(O)CCCCC6)cc5)C(=O)[C@@](C)(CCC(=O)Nc5c(O)ccc(C(=O)O)c5O)[C@@H]3[C@H](C[C@@H]1C4)O2	Active
C[C@]12C[C@@]34C=C(Sc5ccc(N)cc5)C(=O)[C@@](C)(CCC(=O)Nc5c(O)ccc(C(=O)O)c5O)[C@@H]3[C@H](C[C@@H]1C4)O2	Active
C[C@]12C[C@@]34C=C(Sc5ccc(-c6ccccc6)cc5)C(=O)[C@@](C)(CCC(=O)Nc5c(O)ccc(C(=O)O)c5O)[C@@H]3[C@H](C[C@@H]1C4)O2	Active
C[C@]12C[C@@]34C=C(Sc5ccc(/C=C/C(=O)O)cc5)C(=O)[C@@](C)(CCC(=O)Nc5c(O)ccc(C(=O)O)c5O)[C@@H]3[C@H](C[C@@H]1C4)O2	Active
C[C@]12C[C@@]34C=C(Sc5ccc(-c6ccc(C=O)cc6)cc5)C(=O)[C@@](C)(CCC(=O)Nc5c(O)ccc(C(=O)O)c5O)[C@@H]3[C@H](C[C@@H]1C4)O2	Active
C[C@]12C[C@@]34C=C(Sc5cccc(-c6ccc(C=O)cc6)c5)C(=O)[C@@](C)(CCC(=O)Nc5c(O)ccc(C(=O)O)c5O)[C@@H]3[C@H](C[C@@H]1C4)O2	Active
C[C@]12C[C@@]34C=C(Sc5cccc(Cl)c5)C(=O)[C@@](C)(CCC(=O)Nc5c(O)ccc(C(=O)O)c5O)[C@@H]3[C@H](C[C@@H]1C4)O2	Active
CC(C)(C)OC(=O)/C=C/c1cccc(SC2=C[C@]34C[C@H]5C[C@H](O[C@@]5(C)C3)[C@H]4[C@](C)(CCC(=O)Nc3c(O)ccc(C(=O)O)c3O)C2=O)c1	Active
C[C@]12C[C@@]34C=C(Sc5cccc(-c6ccco6)c5)C(=O)[C@@](C)(CCC(=O)Nc5c(O)ccc(C(=O)O)c5O)[C@@H]3[C@H](C[C@@H]1C4)O2	Active
C[C@]12C[C@@]34C=C(Sc5cccc(C#Cc6ccc(Cl)cc6)c5)C(=O)[C@@](C)(CCC(=O)Nc5c(O)ccc(C(=O)O)c5O)[C@@H]3[C@H](C[C@@H]1C4)O2	Active
